Results on 23 compounds are retold here after patent US20190119200A1, “TERTIARY AMIDES AND METHOD OF USE” (AbbVie Inc., priority 2016, published 2019).

Experiment [1] has as its target T1, LPAR1 (Homo sapiens, UniProt Q92633).
T1 construct: host or cells: U2OS
The experiment can be described thus: LPAR1 FLIPR Assay. In kind it is cell-based. The note with it: U2OS cells stably expressing LPAR1, LPA (EC80), Calcium 6 FLIPR dye; for Emax: read-out: Maximum Inhibition. As for the experimental part: U2OS cells stably expressing LPAR1 (Life Technologies #K1519A) were plated at 12000 cells/well in growth medium (McCoy's 5A medium(Life Technologies 16600-082)) with 10% dFBS (Life Technologies 26400-036), 0.1 mM non-essential amino acids, 25 mM HEPES, 1 mM sodium pyruvate, 1% penicillin/streptomycin, 50 μg/mL hygromycin, and 100 μg/mL Geneticin® in black-walled, clear-bottom 384-well plates (Corning #3683) and incubated in humidified 5% CO2 at 37° C. overnight. On the day of the assay, medium was removed and 30 μL of 5% Calcium 6 FLIPR dye in assay buffer-HBSS (Life Technologies #14025) containing 20 mM HEPES (Life Technologies #15630-080) was added to the cells. Cells were incubated at 37° C. in the dark for 2 hours. Compounds were 3-fold serial diluted from 10 mM for 11-points using dimethyl sulfoxide. 1 μL of compound in DMSO was diluted in 82.3 μL assay buffer immediately before the assay. Using a FLIPR® TETRA® system, 15 μL of the (4×) compound solutions were first added to the cells, then 15 μL of LPA (EC80) diluted in of assay buffer supplemented with 0.1% BSA was added 3 minutes later to activate the receptor. Changes in fluorescence were measured at wavelengths of 515-575 nm over the course of the experimental run. IC50 values were calculated from curve fits of the ratio data using a four-parameter logistic Hill equation (Assay Explorer 3.3 Client).

Experiment [2] concerns LPA-induced MCP-1 in NRK-49F cells. The experiment is described as follows: LPA-induced MCP-1 AlphaLISA assay. In kind it is cell-based. The following applies: Rattus norvegicus, final LPA 10 μM, 7 hours; for Emax: read-out: Maximum Inhibition. As for the experimental part:
Two days prior to the experiment, NRK-49F cells were plated at 8,000 cells/well in 100 μL of growth medium [DMEM (Life Technologies #11995) with 5% dFBS (Life Technologies #30067-334), 100 units/mL penicillin/streptomycin (Life Technologies #15140122)] in 96-well clear flat bottom polystyrene TC-treated microplate (Corning® #3599) and incubated in humidified 10% CO2 at 37° C. One day prior to the experiment, the cell medium was removed and serum free medium [100 μL/well, DMEM (Life Technologies #11995) with 0.1% fatty acid free BSA (Sigma #A6003)] was added with continued incubation in humidified 10% CO2 at 37° C. overnight. On the day of the assay, test compounds were 1:3 serially diluted in 100% DMSO using a BioTek Precision™ system and then transferred (equivalent volume of DMSO as controls) to a plate in serum free medium [DMEM with 0.1% fatty acid free BSA] using a Biomek® NX workstation to give a 2× compound solution. The cell culture medium was removed, and cells were pre-treated with 50 μL/well of 2× compound in serum free medium [DMEM with 0.1% fatty acid free BSA] at 37° C. for 30 minutes. Following the incubation, 50 μL/well of 20 μM LPA diluted in serum free medium [DMEM with 0.1% fatty acid free BSA] was added to the cells. Serum free medium [DMEM with 0.1% fatty acid free BSA] was used as substitution for low control wells while 20 µM LPA was added to high control wells and test compound wells. 200 µM LPA was added to EC100 wells. Final DMSO concentration was 1% in every well. Final LPA concentration in test compound wells and high control wells was 10 μM. […] After the incubation, cell supernatant was transferred to a new 96 well polypropylene plate (Greiner #651201) where it was sealed and stored at −80° C. On the detection day, 5 μL of thawed cell supernatant was transferred to a new white opaque 384-well microplate (Perkin Elmer #6007299). An AlphaLISA® mouse/rat CCL2/MCP1, Immunoassay Research kit (PerkinElmer #AL509F) was used. A mixture (20 μL/well) of AlphaLISA® Anti-Analyte Accept beads (10 μg/mL final) and Biotinylated Antibody Anti-Analyte (freshly prepared, 1 nM final) was added. The mixture in the wells was mixed and then incubated at room temperature for 1 hour. Then SA-Donor beads (25 μL/well, 40 μg/mL final) were added giving a final volume of 50 μL/well. The contents of the wells were mixed and then incubated at room temperature for 0.5 hour (protect from light). The plate was read using the default Envision™ Alpha protocol (PerkinElmer). IC50 values were calculated from curve fits of the ratio data using a four-parameter logistic Hill equation (Assay Explorer 3.3 Client).
(Bead proximity is the source of the signal in Alpha formats.)

Some results are limits rather than exact numbers.

T1 sequence (Q92633 whole entry): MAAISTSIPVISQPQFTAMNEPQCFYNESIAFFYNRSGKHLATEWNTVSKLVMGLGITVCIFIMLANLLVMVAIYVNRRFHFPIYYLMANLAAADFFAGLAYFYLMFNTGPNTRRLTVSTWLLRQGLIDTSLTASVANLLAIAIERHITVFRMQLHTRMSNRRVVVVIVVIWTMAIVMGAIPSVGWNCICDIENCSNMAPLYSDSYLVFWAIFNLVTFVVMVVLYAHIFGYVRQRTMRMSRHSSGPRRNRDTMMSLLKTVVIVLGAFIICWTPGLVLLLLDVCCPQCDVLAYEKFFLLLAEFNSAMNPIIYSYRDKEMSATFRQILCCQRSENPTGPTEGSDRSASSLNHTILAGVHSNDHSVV

Broadly, the IC50 is the concentration that inhibits the measured activity by half. In the case of `CCOc1cc(OCC)cc(C(=O)N(CCCCC(=O)O)CCCc2ccccc2)c1` [Example 18, 5-[(3,5-diethoxybenzoyl)(3-phenylpropyl)amino]pentanoic Acid], the IC50 in experiment [1] stood at 50 nM; in experiment [2], 1630 nM. Further, the Emax in experiment [1] was found to be 89%; in experiment [2], 86%.

As to `COc1cc(C(=O)N(CCCCC(=O)O)CCCc2ccccc2)ccc1F` [Example 81, 5-[(4-fluoro-3-methoxybenzoyl)(3-phenylpropyl)amino]pentanoic Acid], in experiment [1], the IC50 is greater than 30000 nM and the Emax was determined as 31%. In experiment [2], the IC50 was greater than 10000 nM and the Emax was determined as 33%.

As for `CCC1CCC(NC(=O)CN(CCCc2ccccc2)C(=O)c2cc(OC)c(C)c(OC)c2)(C(=O)O)CC1` (stereo not drawn) [Example 104, 1-{[N-(3,5-dimethoxy-4-methylbenzoyl)-N-(3-phenylpropyl)glycyl]amino}-4-ethylcyclohexane-1-carboxylic Acid], in experiment [1], the IC50 was 94 nM and the Emax was 95%. In experiment [2], the IC50 came to 2900 nM and the Emax was 74%.

With `COc1cc(C(=O)N(CCCc2cc(Cl)cc(Cl)c2)CCOCC(=O)O)cc(OC)c1C` [Example 127, (2-{[3-(3,5-dichlorophenyl)propyl](3,5-dimethoxy-4-methylbenzoyl)amino}ethoxy)acetic Acid], in experiment [1], the IC50 was greater than 10000 nM and the Emax stood at 7%. Besides, in experiment [2], the IC50 was greater than 10000 nM and the Emax was 14%.

With `COc1cc(C(=O)N(CCCc2ccccc2)CC[S+]([O-])CC(=O)O)cc(OC)c1C` (stereo not drawn) [Example 53, {2-[(3,5-dimethoxy-4-methylbenzoyl)(3-phenylpropyl)amino]ethanesulfinyl}acetic Acid], in experiment [1], the IC50 came out at 239 nM and the Emax was determined as 63%.

Consider `COc1cc(OC)cc(C(=O)N(CCCc2ccccc2)CCOCC(=O)O)c1` [Example 15, {2-[(3,5-dimethoxybenzoyl)(3-phenylpropyl)amino]ethoxy}acetic Acid], for which, in experiment [1], the IC50 came to 290 nM and the Emax is 59%.

On to `COc1ccc(C2(C(=O)N(CCCCC(=O)O)CCCc3ccccc3)CC(OC)C2)cc1` (stereo not drawn) [Example 159, 5-{[trans-3-methoxy-1-(4-methoxyphenyl)cyclobutane-1-carbonyl](3-phenylpropyl)amino}pentanoic Acid], for which, in experiment [1], the IC50 came out at 302 nM and the “Maximum Inhibition” value stood at 85%.

For `COc1cc(C(=O)N(CCCCC(=O)O)CCCc2ccccc2)nc(OC)n1` [Example 163, 5-[(2,6-dimethoxypyrimidine-4-carbonyl)(3-phenylpropyl)amino]pentanoic Acid], in experiment [1], the IC50 is 244 nM and the Emax came out at 57%.

For `COc1ccc(C2(C(=O)N(CCCCC(=O)O)CCCc3ccccc3)CCCC2)cc1` [Example 106, 5-{[1-(4-methoxyphenyl)cyclopentane-1-carbonyl](3-phenylpropyl)amino}pentanoic Acid], in experiment [1], the IC50 is 766 nM and the Emax turned out to be 55%.

As for `COc1ccc([C@@H](OC)C(=O)N(CCCCC(=O)O)CCCc2ccccc2)cc1` [Example 66, 5-{[(2R)-2-methoxy-2-(4-methoxyphenyl)acetyl](3-phenylpropyl)amino}pentanoic Acid], in experiment [1], the IC50 was found to be 312 nM and the Emax was determined as 71%.

As for `COc1cc(C(=O)N(CCCCC(=O)O)[C@H](C)CCc2ccccc2)cc(OC)c1C` [Example 153, 5-{(3,5-dimethoxy-4-methylbenzoyl)[(2R)-4-phenylbutan-2-yl]amino}pentanoic Acid], in experiment [1], the IC50 amounted to 127 nM and the Emax was found to be 83%.

As for `Cc1c(Cl)cc(C(=O)N(CCCCC(=O)O)CCCc2ccccc2)cc1Cl` [Example 16, 5-[(3,5-dichloro-4-methylbenzoyl)(3-phenylpropyl)amino]pentanoic Acid], in experiment [1], the IC50 is 985 nM and the Emax was determined as 70%.

With `COc1cc(C(=O)N(CCCCC(=O)O)CCCc2ccc(C)o2)cc(OC)c1C(F)(F)F` [Example 177, 5-{[3,5-dimethoxy-4-(trifluoromethyl)benzoyl][3-(5-methylfuran-2-yl)propyl]amino}pentanoic Acid], in experiment [1], the IC50 was 235 nM and the Emax was found to be 57%.

Regarding “5-[(3-methoxy-4-methylbenzoyl)(3-phenylpropyl)amino]pentanoic Acid [Example 28]”, in experiment [1], the IC50 came to 398 nM and the “Maximum Inhibition” value was found to be 72%.

Turning to `COc1cc(C(=O)N(CCCc2ccccc2)CCSCC(=O)O)cc(OC)c1F` [Example 100, ({2-[(4-fluoro-3,5-dimethoxybenzoyl)(3-phenylpropyl)amino]ethyl}sulfanyl)acetic Acid], in experiment [1], the IC50 was greater than 30000 nM and the Emax stood at 60%.

Take `COc1ccc2c(C(=O)N(CCCCC(=O)O)CCCc3ccccc3)c[nH]c2c1` [Example 65, 5-[(6-methoxy-1H-indole-3-carbonyl)(3-phenylpropyl)amino]pentanoic Acid]: in experiment [1], the IC50 was determined as 5020 nM and the Emax turned out to be 49%.

For the compound `COc1cc(C(=O)N(CCCc2ccccc2)CC(=O)N[C@@H](Cc2ccccc2)C(=O)O)cc(OC)c1C` [Example 46, N-(3,5-dimethoxy-4-methylbenzoyl)-N-(3-phenylpropyl)glycylphenylalanine], in experiment [1], the IC50 is 128 nM and the Emax amounted to 66%.

Take `O=C(O)CCCCN(CCCc1ccccc1)C(=O)C1(c2ccncc2)CC1` [Example 64, 5-{(3-phenylpropyl)[1-(pyridin-4-yl)cyclopropane-1-carbonyl]amino}pentanoic Acid]: in experiment [1], the IC50 was determined as 1230 nM and the Emax was found to be 54%.

On to `Cc1cc(C(=O)N(CCCCC(=O)O)CCCc2ccccc2)c2c(C)noc2n1` [Example 172, 5-[(3,6-dimethyl[1,2]oxazolo[5,4-b]pyridine-4-carbonyl)(3-phenylpropyl)amino]pentanoic Acid], for which, in experiment [1], the IC50 worked out at 1460 nM and the Emax stood at 63%.

For `COc1ccc(C2(C(=O)N(CCCCC(=O)O)CCCc3ccccc3)CC(OC)C2)cc1` (stereo not drawn) [Example 158, 5-{[cis-3-methoxy-1-(4-methoxyphenyl)cyclobutane-1-carbonyl](3-phenylpropyl)amino}pentanoic Acid], in experiment [1], the IC50 stood at 511 nM and the “Maximum Inhibition” value was 98%.

For the compound `COc1cc(OC(F)(F)F)cc(C(=O)N(CCCCC(=O)O)CCCc2ccccc2)c1` [Example 29, 5-{[3-methoxy-5-(trifluoromethoxy)benzoyl](3-phenylpropyl)amino}pentanoic Acid], in experiment [1], the half-inhibitory concentration (IC50) stood at 309 nM and the Emax came out at 79%.

Turning to `COc1cc(C(=O)N(CCCCC(=O)O)CCCc2ccccc2)cc2ccoc12` [Example 24, 5-[(7-methoxy-1-benzofuran-5-carbonyl)(3-phenylpropyl)amino]pentanoic Acid], in experiment [1], the IC50 turned out to be 481 nM and the Emax was 58%.

As for `Cc1nc2c(C(=O)N(CCCCC(=O)O)CCCc3ccccc3)cccc2c(=O)[nH]1` [Example 160, 5-[(2-methyl-4-oxo-3,4-dihydroquinazoline-8-carbonyl)(3-phenylpropyl)amino]pentanoic Acid], in experiment [1], the IC50 is 8020 nM and the Emax amounted to 63%.
